# Experimental data from patent US9018252B2, “Stable compositions of dehydroascorbic acid” (priority 2010, dated 2015).
# What was measured:
# [1] = solid form; cited from earlier work
# [2] = test system: HSV-1, influenza virus, poliovirus; conditions: cited from earlier work; for antiviral effects in vitro: viruses such as HSV-1, influenza virus, poliovirus
# [3] = DHAA stability in polyol solutions (general statements); format: physicochemical
# [4] = DHAA stability testing of ozone-oxidized glycerol/water solutions (Example 1); format: physicochemical
# Excerpt: (§1) AA concentration in solution is commonly measured as the reducing activity of the solution using starch-iodine titration methods that are well-known in the art. […] This method is also well known in the art. DHAA in solution can be converted into AA by reducing agents such as dithiothreitol (DTT) or tris(2-carboxyethyl)phosphine (TCEP), and its concentration is commonly measured spectrophotometrically as the difference in absorbance of a solution subjected to reduction by DTT or TCEP versus a similar solution that is not subjected to a reducing agent. These methods are also well-known in the art, but see Deutsch for examples. In the description, claims, and the following examples, DHAA in the compositions of the invention is the vitamin C that can be measured by the difference in absorbance at 262 nm using TCEP reducing agent.
# A 15% AA solution in water was prepared by adding 15 grams AA per 100 mL purified water with stirring. A 15% solution of AA in glycerol was prepared by adding 15 grams AA per 100 mL pure USP glycerol and stirring with heat. A corona-discharge type ozone generator with feed-gas of pure oxygen was used to supply an oxidizing gas containing about 5% ozone, and each of the 15% AA solutions was subjected to oxidizing conditions by bubbling the oxidizing gas through the solution using a glass diffuser. The progress of AA oxidation in each solution was monitored by the disappearance of reducing activity as measured by starch-iodine titration. Each solution was subjected to the oxidizing conditions until all (>99%) of the original reducing activity had disappeared. The solution made with pure glycerol was labeled “100% Glycerol,” and the solution made with purified water was labeled “100% Water.” Portions of these two solutions were combined to produce solutions of various glycerol concentrations by weight, specifically “99% Glycerol,” “98% Glycerol,” “97% Glycerol,” “96% Glycerol,” “95% Glycerol”, “90% Glycerol,” and “50% Glycerol.” For example, 99 parts by weight of “100% Glycerol” was combined with 1 part by weight “100% Water” to produce the “99% Glycerol” solution.
# Aliquots of each of the solutions prepared above were placed in translucent, screw-capped polyethylene vials and were stored at room temperature. No attempt was made to further protect the vials from ambient indoor light, and each vial contained a headspace of normal air. Each vial was periodically opened to remove a sample for stability testing over the next 229 days. The concentration of DHAA in each sample was measured by spectrometry on each testing day. The initial DHAA concentration of each solution on Day 1 was recorded and assigned a value of 100%, and the concentration on each subsequent stability test day was calculated as the percent remaining of the initial concentration.
# [5] = DHAA stability testing of glycerol solution oxidized with activated charcoal and oxygen (Example 2); format: physicochemical; conditions: "100% Glycerol", activated charcoal/oxygen oxidation, room temperature, 191 days
# Excerpt: as §1
# A solution of AA in pure USP glycerol was subjected to oxidizing conditions by suspending activated charcoal in the solution and then bubbling pure oxygen through the solution. Oxidation of AA during this process was monitored by starch-iodine titration. After the desired amount of AA had been oxidized, the activated charcoal was removed from the solution by centrifugation and filtration. […] The concentration of DHAA in the sample was measured by spectrometry on each testing day. […]
# [6] = Absorption of AA and DHAA into skin of human volunteers after topical application (Example 5); format: in vivo; conditions: 1.4 mg/cm^2, after 4 hours
# Description: This solution was applied topically to the skin of human volunteers to compare the absorption rate of AA versus DHAA. To assess permeation into the stratum corneum, the solution was diluted 1:1 with water and applied at a rate of 1.4 mg/cm^2 to delineated skin surfaces and allowed 0, 2 or 4 hours for absorption. Each skin surface was then washed with deionized water, and the skin washings were collected and measured for AA and DHAA content. The amount absorbed at 2 and 4 hours was determined by subtraction from the amount present in the 0 hour washings.
# Data points are the mean+/−SD of triplicate analyses on 4 subjects. The 2 and 4 hour values are the difference as percentage from the 0 hour (baseline) values, determined by analysis of skin washings. It can be seem that after 4 hours DHAA had absorbed into the skin at a rate about 12 times greater than AA, and that the total vitamin C content of the skin was increased at a much more rapid rate than applying AA alone. (Asterisks on FIG. 21 indicate the following: * Statistically significant at P<0.05. ** Statistically significant at P<0.01).
# [7] = DHAA stability testing of solutions with various AA:DHAA ratios (Example 4); format: physicochemical
# Excerpt: AA concentration in solution is commonly measured as the reducing activity of the solution using starch-iodine titration methods that are well-known in the art. […] This method is also well known in the art. DHAA in solution can be converted into AA by reducing agents such as dithiothreitol (DTT) or tris(2-carboxyethyl)phosphine (TCEP), and its concentration is commonly measured spectrophotometrically as the difference in absorbance of a solution subjected to reduction by DTT or TCEP versus a similar solution that is not subjected to a reducing agent. These methods are also well-known in the art, but see Deutsch for examples. In the description, claims, and the following examples, DHAA in the compositions of the invention is the vitamin C that can be measured by the difference in absorbance at 262 nm using TCEP reducing agent. […]
# (§2) Aliquots of each of the solutions prepared above were placed in transparent, screw-capped glass vials and were stored at room temperature. […] The concentration of DHAA in each sample was measured by spectrometry on each testing day. The initial DHAA concentration of each solution was recorded and assigned a value of 100% (Day 0), and the concentration on each subsequent stability test day was calculated as the percent remaining of the initial concentration.
# [8] = DHAA stability testing of propylene glycol/water solutions oxidized with Fenton's Reagent (Example 3); format: physicochemical; conditions: room temperature
# Excerpt: as §1
# AA was dissolved in purified water to give a highly concentrated solution, and then sufficient 30% hydrogen peroxide was added to oxidize about half of the AA. Iron to catalyze the reaction was provided by addition of ferrous sulfate. Oxidation of the AA was monitored by spectrometry until the expected amount of AA had been oxidized. This solution was labeled “100% Water.” Portions of this solution were combined with portions of pure, USP grade propylene glycol to produce solutions of “97% Propylene Glycol,” “95% Propylene Glycol,” “90% Propylene Glycol,” “80% Propylene Glycol,” “70% Propylene Glycol,” and “50% Propylene Glycol.” For example, 3 parts by volume of the “100% Water” solution were combined with 97 parts by volume propylene glycol to yield the “97% Propylene Glycol” solution.
# as §2, with “translucent,” for “transparent,”, “polyethylene” for “glass”
# human skin cells = conditions: cited from earlier work
Structure (SMILES),"ease of dissolving the solid in water, AA compared with DHAA [1]",antiviral effects in vitro [2],DHAA stability ([3]; polyol solutions with high water content (water to glycol/polyol at least 1:1)),DHAA stability ([3]; pure polyol solvents and solutions with polyol content greater than about 50 percent),"DHAA stability compared with water ([4]; 50% glycerol concentration, room temperature)","initial amount of DHAA remaining ([4]; ""100% Water"" solution, room temperature, tested at 20 days)","initial DHAA concentration remaining ([4]; pure glycerol (""100% Glycerol""), approximately 8 months of storage at room temperature)","DHAA stability ([4]; solutions containing high concentrations of glycerol, room temperature, up to 229 days)",DHAA stability [5],"rate of absorption into the skin, DHAA relative to AA [6]",antiviral effects of DHAA compared with AA ([2]; in vitro),"initial amount of DHAA remaining ([7]; ""Control"": 100% water, initial AA:DHAA about 1:1, room temperature, after 3 days)","DHAA stability ([7]; polyol (100% glycerin) solutions with AA:DHAA ratios between 2:1 and 99:1, room temperature, 30 days)","initial amount of DHAA remaining ([8]; ""100% Water"" solution (Fenton's Reagent), after 5 days)","DHAA concentration over time ([8]; many of the propylene glycol solutions, 31 days)","DHAA stability ([8]; solutions containing high concentrations of propylene glycol, 31 days)","level absorbed into cells, DHAA relative to AA (human skin cells)","speed of absorption into cells, DHAA relative to AA (human skin cells)"
"O=C1O[C@H]([C@@H](O)CO)C(O)=C1O [AA, ascorbic acid]",far more easily dissolved,antiviral effects,,,,,,,,,,,,,,,,
"O=C1O[C@H]([C@@H](O)CO)C(=O)C1=O [DHAA, dehydroascorbic acid]",,antiviral effects,not stable,stable,only minor improvement,less than 10%,greater than 80%,preserved very well,excellent long-term stability,about 12 times,much stronger,less than 20%,preserved very well,less than 20%,increased significantly,preserved very well,2 times,up to 5 times
